Measured values reported in article PMC5077133, “Towards Development of Small Molecule Lipid II Inhibitors as Novel Antibiotics” (PLoS ONE, 2016).

Assays:
A. baumanii ATCC 19606 = assay: Antibacterial activity (MIC, broth dilution); assay type: cell-based, Acinetobacter baumanii; settings: CLSI, in µg/mL
Method in brief: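 MIC determined by broth dilution following CLSI standards, using A. baumanii ATCC 19606.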

[1] = Lipid II binding by Surface Plasmon Resonance; settings: SPR, immobilized 3-Lipid II, 25°C
Method in brief: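 Farnesyl (3-isoprene) Lipid II amine-coupled (50 RUs) on CM5 chips. Compounds injected at 10 μM, 30 μl/min, 25°C, in 10 mM HEPES, 150 mM NaCl, 0.05% P20, pH 7.4 (± 3 mM EDTA), 10% DMSO. Signals corrected against control flow-cell; kinetics fitted from binding isotherms.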

E. faecalis EF1509 = assay: MIC for the strain used in macromolecular synthesis assays; assay type: cell-based; settings: Enterococcus faecalis
Experimental: Determination of the Minimal Inhibitory Concentrations (MIC) by dilution was carried out by broth dilution according to CLSI standards.
(§1) The effect of compounds on the macromolecular synthetic pathways of E. faecalis EF1509 were measured as follows: Cells were grown at 35°C overnight on Tryptic Soy Agar Broth (Remel, Lenexa, KS), and growth from the plate was used to inoculate 15 ml of Mueller Hinton Broth. The culture was grown to early exponential growth phase (OD600 = 0.2 to 0.3) while incubating in a shaker at 35°C and 150 rpm. For each macromolecular assay, the test agents were added at either 0, 0.25, 0.5, 1, 2, or 4, -fold their respective MIC values for E. faecalis EF1509.

[2] = system: lipid synthesis in E. faecalis EF1509; assay: Macromolecular synthesis assay: lipid synthesis; assay type: cell-based; settings: Enterococcus faecalis; E. faecalis EF1509, [3H] glycerol incorporation; read-out: IC50 inhibition of lipid synthesis
Experimental: as §1
For lipid synthesis, bacterial cells were grown to early exponential growth phase in MHB and 100 μl was added to 1.5 ml Eppendorf tubes (in triplicate) containing various concentrations of test compound or control antibiotics as described above. Following a 5 min incubation at room temp., [^3H] glycerol was added at 0.5 μCi per reaction. Reactions were allowed to proceed at room temperature for 40 min and then stopped through the addition of 375 μl of chloroform/methanol (1:2) followed by vortexing for 20 sec after. Chloroform (125 μl) was then added to each reaction and vortexed, followed by the addition of 125 μl dH2O and vortexing. […] Samples were then counted via liquid scintillation counting. […]

[3] = system: protein synthesis in E. faecalis EF1509; assay: Macromolecular synthesis assay: protein synthesis; assay type: cell-based; settings: Enterococcus faecalis; E. faecalis EF1509, [3H]Leucine incorporation; read-out: IC50 inhibition of protein synthesis
Experimental: as §1
For DNA and protein synthesis, 100 μl of cell culture reaching early exponential phase was added to triplicate wells containing various concentrations of test compound or control antibiotics (2.5 μl) at 40X the final concentration in 100% DMSO (0.1% methanol in water for Rifampicin). A 2.5% DMSO treated culture served as the “no drug” control for all experiments. Cells were added in 1.25X strength MHB to account for the volume of drug added to each reaction, or in M9 minimal medium for protein synthesis reactions. […] After washing five times with 200 μl per well of cold 5% TCA, the filters were allowed to dry, and then counted using a Packard Top Count microplate scintillation counter.

Compound	Antibacterial activity (MIC) A. baumanii ATCC 19606 (A. baumanii ATCC 19606)	Kd [1] [nM]	MIC (E. faecalis EF1509) [µg/mL]	IC50 [2] [µg/mL]	IC50 [3] [µg/mL]
CN(C)c1ccc(/C=C/c2cc(-c3ccc(Br)cc3)cc(-c3ccc(Br)cc3)[o+]2)cc1 [6jc48-1]	>=64	150 ± 30	4	7.8	50.4
CN1/C(=C/C=C/c2cc(-c3ccccc3)cc(-c3ccccc3)[o+]2)C(C)(C)c2ccccc21 [BAS-00127538, (1-Methyl-2,4-diphenyl-6-((1E,3E)-3-(1,3,3-trimethylindolin-2-ylidene)prop-1-en-1-yl)pyryl-1-ium) tetrafluoroborate, reference compound]	4	1810 ± 300	2	2.3	1.6
